What was measured:
Type in all cases: in vivo, Syrian hamsters
[1] = tested on: hamsters fed with high cholesterol diet; experiment: Animal experiments on lowering blood lipids: serum lipid profile
Protocol: Male Syrian hamsters aged 6-7 weeks were tested for evaluating the effects of lowering blood lipid profile. Animals were divided into 6 groups, 8 hamsters in each group with a total of 48 hamsters. The experiment was conducted for 8 weeks, and the dosing method was oral gavage, and the animals of experimental groups were fed with the astaxanthin compound composition prepared according to the present invention. The dosage used was calculated according to the dosage for adult human. […] Based on this dosage, the 1×, 2× and 3× dosages were respectively defined for the following testing. The animals were fed with 1× (the converted dosage for hamster is 30.83 mg/kg), 2× (the converted dosage for hamster is 61.67 mg/kg) and 3× (the converted dosage for hamster is 92.50 mg/kg) dosages. At the same time, the clinically used anti-hyperlipidemic drug, Probucol, was used as comparison for evaluating the anti-hyperlipidemic effect. [table] Biostatistical analysis method: the results of the experiment were statistically tested based on one-way ANOVA by using SPSS 10.1 system. Then, the difference among the groups was tested by Duncan's Multiple Range Test. When the p value is smaller than 0.05 (P<0.05), it indicates statistically significant difference. The experimental animals were sacrificed to have blood drawn and the results of total cholesterol (TC) and triglyceride (TG) were shown in Table 2. […] Please continue to refer to Table 2 for the effects of astaxanthin compound composition on high-density lipoprotein cholesterol (HDL-C), low-density lipoprotein cholesterol (LDL-C) in hamsters fed with high cholesterol diet.

[2] = tested on: hamsters fed with high cholesterol diet; experiment: Animal experiments on lowering blood lipids: total cholesterol and triglyceride in the liver
Protocol: (§1) Male Syrian hamsters aged 6-7 weeks were tested for evaluating the effects of lowering blood lipid profile. Animals were divided into 6 groups, 8 hamsters in each group with a total of 48 hamsters. The experiment was conducted for 8 weeks, and the dosing method was oral gavage, and the animals of experimental groups were fed with the astaxanthin compound composition prepared according to the present invention. The dosage used was calculated according to the dosage for adult human. […] Based on this dosage, the 1×, 2× and 3× dosages were respectively defined for the following testing. The animals were fed with 1× (the converted dosage for hamster is 30.83 mg/kg), 2× (the converted dosage for hamster is 61.67 mg/kg) and 3× (the converted dosage for hamster is 92.50 mg/kg) dosages. At the same time, the clinically used anti-hyperlipidemic drug, Probucol, was used as comparison for evaluating the anti-hyperlipidemic effect. [table] Biostatistical analysis method: the results of the experiment were statistically tested based on one-way ANOVA by using SPSS 10.1 system. Then, the difference among the groups was tested by Duncan's Multiple Range Test. When the p value is smaller than 0.05 (P<0.05), it indicates statistically significant difference. When the concentration of total cholesterol and triglyceride in the liver is too high, the risk of developing fatty liver may increase. According to the present Experimental Example, the concentration changes in total cholesterol and triglyceride in the liver and feces of the tested animals are shown in Table 3.

[3] = tested on: hamsters fed with high cholesterol diet; experiment: Animal experiments on lowering blood lipids: total cholesterol and triglyceride in the feces; conditions: Positive control (P), 124 mg/kg oral gavage, 8 weeks
Protocol: as §1, with “When the concentration of total cholesterol and triglyceride in the liver is too high, the risk of developing fatty liver may increase. According to the present Experimental Example, the concentration changes in total cholesterol and triglyceride in the liver and feces of the tested animals are shown in Table 3.” left out

[4] = Positive control (P), 124 mg/kg oral gavage, 8 weeks, high cholesterol diet

With `CC(C)(Sc1cc(C(C)(C)C)c(O)c(C(C)(C)C)c1)Sc1cc(C(C)(C)C)c(O)c(C(C)(C)C)c1` [Probucol] the HDL-C in serum [1, 4] was 83 ± 11 mg/dL, the HDL-C/TC in serum [1, 4] was 0.707 ± 0.066 and the LDL-C in serum [1, 4] was 31.8 ± 3.9 mg/dL. For the same molecule, the LDL-C/HDL-C in serum [1, 4] was 0.392 ± 0.110, the LDL-C/TC in serum [1, 4] was 0.203 ± 0.032 and the “TC (total cholesterol) in serum” value [1, 4] was 157 ± 11 mg/dL. For the same molecule, the “TG (triglyceride) in serum” value [1, 4] was 152 ± 14 mg/dL, the “total cholesterol in blood compared with vehicle control group” value ([1]; positive control group, 124 mg/kg, p<0.05) was “significantly lower” and the “liver TC” value [2, 4] was 3.80 ± 0.26 mg/g. For the same molecule, the “liver TG” value [2, 4] was 13.7 ± 1.5 mg/g, the “total cholesterol concentration in the liver compared with vehicle control group” value ([2]; positive control (P) group, 124 mg/kg, p<0.05) was “significantly lower” and the “feces TC” value [3] was 6.7 ± 0.9 mg/g. The “feces TG” value [3] was 15.8 ± 2.8 mg/g.
